We go through 34 compounds from a melting point compilation (Tetko et al.; mined from patent text by program, amines drawn as free bases though some values may be those of a salt).

As usually defined, the melting point is the temperature of the solid-liquid transition. For the compound `CNC(=S)NS(=O)(=O)c1cc(CCNC(=O)C=Cc2cccs2)ccc1OCC1CCCO1` (centres undefined), the melting point was 78 °C.
To `Cn1c(C#N)ccc1-c1ccc2c(c1)C1(CCCCC1)C(=S)N2` belongs 269 to 272 °C; to `CC(C)(C)OC(=O)N1CCC(c2ccc([N+](=O)[O-])cc2)CC1`, 60 to 62 °C.
The same measure for `COc1ccc2[nH]c(=O)c(-c3nnnn3Cc3cccc(OCc4ccc5ccccc5n4)c3)cc2c1`: 215 to 217 °C; for `CCC(C)(CC)CC(=O)C(OC(=C1C(=O)N(C(N)=O)c2cc(Cl)c(F)cc21)c1cccs1)C(=O)O` (centres undefined): 124 to 125 °C; for `COc1cc(C)cc(OC)c1CCCCCNC(=O)[C@@H](CCCCN)NC(=O)c1cc2ccccc2n1CC(=O)O`: 173 °C.
In the case of `OC(Cn1cncn1)(c1ccc(F)cc1F)C(c1ccc(OCc2ccccc2)cc1)n1cncn1` (centres undefined), the melting point fell in the range of 144 to 147 °C.
Turning to `COc1ccc(OC)c(CN2CCc3cc(O)ccc3C2)c1`, the melting point was in the range of 178 to 192 °C.
In the case of `CC(=O)c1cccc(NC(=O)NCC(=O)N(CC(=O)N(C)c2ccccc2)c2ccccc2)c1`, the melting point is 170 °C.
To `NC1(CF)CCCNC1=O` (centres undefined) belongs 132 °C; to `N#CC1C=Cc2ccccc2N1C(=O)c1ccccc1` (centres undefined), 153 to 154 °C.
On to `Cn1c2cc(OCCO)ccc2c2c3c(c(-c4ccccc4Cl)cc21)C(=O)NC3=O`, for which the melting point fell in the range of 309 to 312 °C.
To `O=C(NC(=O)c1c(F)cccc1F)Nc1ccc(-c2ccc(Cl)cc2)c(Cl)n1` belongs 237 to 241 °C; to `Cc1cc([N+](=O)[O-])cc(C)c1Oc1ccc(OCc2ccccc2)c(C(C)C)c1`, 99 to 100 °C.
As for `CCCCc1c(Cl)nc(N)nc1Cl`, the melting point fell in the range of 169 to 170 °C.
As for `COc1ccc(C(=O)c2ccccc2[N+](=O)[O-])cn1`, the melting point lay within 94 to 95 °C.
The same measure for `CNc1nnc(-c2ccc3occ(-c4cccc(OC(F)(F)F)c4)c3c2)o1`: 169 to 170 °C; for `COC(=O)c1c(SCc2ccc(OC)cc2)nc(C)n1Cc1cc2c(cc1Cl)OCO2`: 169 °C.
Consider `CC(=O)OCc1nc(C(C)C)c(Sc2cc(Cl)cc(Cl)c2)n1Cc1ccncc1`, for which the melting point lay in the range of 133 to 135 °C.
To `CC(=NOC(=O)N(C)SC(Cl)(Cl)Cl)SCCC#N` belongs 136 to 138 °C; to `COc1cc(C(=O)c2ccc([N+](=O)[O-])cc2)c(CC(=O)O)cc1Cl`, 185 to 188 °C.
Regarding `CC#CC(C)(C)NC(=O)C(CC)Oc1ccc2ncc(C#N)cc2c1` (centres undefined), the melting point fell in the range of 116 to 118 °C.
Consider `COc1ccc2oc(C(=O)Nc3ccc(-c4ccc(S(=O)(=O)NC(C(=O)O)C(C)C)cc4)cc3)cc2c1` (centres undefined), for which the melting point is 257 to 259 °C.
As for `N#Cc1ccc(O)cc1Cl`, the melting point fell in the range of 157 to 158 °C.
As to `O=C(c1ccc(Br)cc1)c1cc2c(ccc3ccccc32)oc1=O`, the melting point is 213 to 215 °C.
`O=C(c1cccnc1)c1ccc2c(c1)CN1C=CNC1=N2` registered a melting point of 275 °C.
The same measure for `Cc1cc(=O)c(-c2ccc(Oc3ccc(S(C)(=O)=O)cc3)cc2)c(C)o1`: 170 to 173 °C.
`COc1cc(NC(=O)Oc2ccc(N(CCCl)CCCl)cc2)cc(Nc2c3ccccc3nc3ccccc23)c1` had a melting point of 179 to 180 °C.
With `CCNC(=O)NC1=C(C(=O)OC)CCNC1=O`, the melting point came out at 103 °C.
The same measure for `CCOC(=O)Nc1ccc2c(c1)CC[C@H](CCC(F)(F)F)O2`: 88 °C; for `CC(C)NCC(O)c1cnc(N)c(Cl)c1` (centres undefined): 146 °C; for `O=[N+]([O-])c1cccc([N+](=O)[O-])c1F`: 50 °C.
The same measure for `O=CNNc1ccc(NC(=O)c2cccc([N+](=O)[O-])c2)cc1`: 185 to 187 °C; for `CC(CN1CCN(c2ccc(C(=O)O)cc2)CC1)Oc1ccccc1` (centres undefined): 152 to 154 °C.
